The values below come from patent publication EP4707393A1, “DOUBLE-STRANDED SIRNA, CONJUGATE THEREOF AND USE THEREOF” (CMS Research & Development Pte. Ltd., priority 2023, dated 2024).

The test system of data set [1] is human LPA gene (Genbank number: NM_005577.4). Description: Inhibitory activity against LPA mRNA, psiCHECK-2 dual-luciferase reporter vector in Huh7 cells. It counts as cell-based. The note with it: Huh7 cells transfected with LPA_psiCHECK-2 plasmid, RNAiMAX transfection. The method in brief: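 Huh7 cells transfected with psiCHECK-2 carrying human LPA, then treated next day with compounds (3 concentrations) delivered by RNAiMAX. Dual-Glo readout of firefly and Renilla luciferase per well. Percent inhibition calculated from the reporter ratio relative to the RNAiMAX control.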

The subject of a further data set is LPA mRNA. Description: In vivo efficacy in LPA-HDI mouse model (liver LPA mRNA). Also on record: species or system BALB/c mouse. The note with it: 3 mg/kg single subcutaneous injection, Day 14, relative to PBS blank group, 4 mice per group. As for the experimental part: The knockdown effect of the test double-stranded siRNA conjugate on the target gene LPA upon entry into the mouse is evaluated by rapid high-pressure injection of the physiological saline containing recombinant plasmid pcDNA-LPA carrying the target gene via the tail vein.
pcDNA-LPA plasmid, BALB/c mouse, PBS (phosphate buffer), and conjugates of the present invention.
Six-week-old female BALB/c mice were ordered and acclimated/quarantined for three days upon arrival in the animal room.
On Day 0, the mice were randomly grouped based on body weight data. After grouping, all mice were given a single administration via subcutaneous injection, with a dose volume of 10 mL/kg. Mice in Group 1 received PBS; mice in the other groups received the conjugates (dissolved in PBS).
On Day 13 post-administration, all mice were injected with normal saline containing the pcDNA-LPA plasmid via the tail vein within 5 seconds. The injection volume (mL) = mouse body weight (g) × 8%. The amount of plasmid injected per mouse was 10 µg.
On Day 14 post-administration, all groups of mice were euthanized by CO2 inhalation, and 2 liver samples were collected from each mouse. Liver samples were treated overnight with RNAlater at 4 °C, then RNAlater was removed, and stored at -80 °C for detection of LPA gene expression levels.

The next data set concerns hPBMCs. Nature of the data set: Immunogenicity test in hPBMCs (IL-6 and TNF-α ELISA of supernatant). Format: cell-based, human. Conditions: donor 1 hPBMCs, 18-20 h. As for the experimental part:
1 Experimental material • 1.1 Double-stranded siRNA conjugates • 1.2 hPBMCs, purchased from Shanghai Sailybio Medical Co., LTD. • 1.3 Main reagents: Penicillin-Streptomycin (Cat. No.: 15140122), RNase-free water (Cat. No.: AM9938), IL-6 ELISA kit (Cat. No.: 555220), TNF-α ELISA kit (Cat. No.: 555212), LPS (Cat. No.: L2630), etc. 2 Experimental method • 2.1 Compound Preparation: Compounds were prepared as stock solutions with enzyme-free water. Compound weight = powder weight * purity. The concentration of prepared solutions was 900 µg/mL, followed by three-fold serial dilution with enzyme-free water. Each concentration was diluted 10-fold with 1640 medium, resulting in a final enzyme-free water content of 5.0%. • 2.2 Experimental procedure: • 2.2.1 PBMC cells were resuscitated one day in advance and incubated overnight in 1640 complete medium. • 2.2.2 On the day of the experiment, PBMC cells were centrifuged at 300 × g for 8 minutes, and the cell density was adjusted to 1.6 × 10^6 mL with 1640 complete medium. The cells were then added to a 96-well plate, 125 µL per well, and incubated in a 37 °C, 5% CO2 incubator for 15 minutes. • 2.2.3 The diluted test compounds were added to the 96-well plate according to the plate map, all in duplicate, 125 µL for each well; the positive control group and the blank group were added with an equal volume of 1640 complete culture medium containing the same amount of enzyme-free water. • 2.2.4 After gently shaking, the well plates were incubated in an incubator at 37 °C for 18-20 h. The supernatant was collected by centrifugation, and secretions of TNF-α and IL-6 were detected by ELISA. • 2.2.5 Data were analyzed using GraphPad Prism 8 software. 3 Experimental results Table 10. IL-6 and TNF-α levels in the cell supernatant of donor 1 hPBMCs treated with different doses of test compounds
A general note: An ELISA detects its analyte on a solid surface through an enzyme-linked reagent.

“Z35: siRNA conjugate: sense SEQ ID NO:49, ligand D18 at 3' end of sense strand, antisense SEQ ID NO:74 (sense CAGCCCCTTATTGTTATACGA; antisense TCGTATNACAATAAGGGGCNGTT; ligand D18 at sense 3' end; listed as RNA; modified_base 1: mod_base = OTHER; note = 2'-O-methylcytidine; modified_base 2: mod_base = OTHER; note = 2'-O-methyladenosine; modified_base 3: mod_base = OTHER; note = 2'-O-methylguanosine; modified_base 4..7: mod_base = OTHER; note = 2'-O-me; note = E-type vinylphosphonate-modified 2'-O-methyluridine; note = 2'-deoxycytidine; modified_base 4: mod)” came in with an EC50 in data set [1] of 0.14 nM. Besides, in the data set with LPA mRNA, the “% Downregulation of LPA mRNA” value stood at 92.3%.

In data set [1], “Z34: siRNA conjugate: sense SEQ ID NO:48, ligand D18 at 3' end of sense strand, antisense SEQ ID NO:73 (sense CAGCCCCTTATTGTTANACGA; antisense TCGTATNACAATAAGGGGCNGTT; ligand D18 at sense 3' end; listed as RNA; modified_base 1: mod_base = OTHER; note = 2'-O-methylcytidine; modified_base 2: mod_base = OTHER; note = 2'-O-methyladenosine; modified_base 3: mod_base = OTHER; note = 2'-O-methylguanosine; modified_base 4..6: mod_base = OTHER; note = 2'-O-me; note = E-type vinylphosphonate-modified 2'-O-methyluridine; note = 2'-fluorocytidine; modified_base 4: mo)” returned an EC50 of 3.05 nM. In addition, in the data set on LPA mRNA, the “% Downregulation of LPA mRNA” value was 78.1%.

On to “Z27: siRNA conjugate: sense SEQ ID NO:43, ligand D18 at 3' end of sense strand, antisense SEQ ID NO:66 (sense CAGCCCCTTATTGTTANACGA; antisense TCTCGTATNACAATAAGGGGCTG; ligand D18 at sense 3' end; listed as RNA; modified_base 1: mod_base = OTHER; note = 2'-O-methylcytidine; modified_base 2: mod_base = OTHER; note = 2'-O-methyladenosine; modified_base 3: mod_base = OTHER; note = 2'-O-methylguanosine; modified_base 4..7: mod_base = OTHER; note = 2'-O-me; note = 2'-O-methyluridine; modified_base 4: mod_base = OTHER; note = 2'-fluorocytidine; modified_base 5: mod_base = OTHER; note = 2'-O-methylg)”, for which the EC50 in data set [1] came to 0.96 nM. Further, the “% Downregulation of LPA mRNA” value in the data set on LPA mRNA came to 92.2%.

In turn, “Z9: siRNA conjugate: sense SEQ ID NO:33, ligand D08 at 3' end of sense strand, antisense SEQ ID NO:56 (sense CCCTTATTGTTATACG; antisense ATCCCTCGTANAACAATAAGGGGCTGTT; ligand D08 at sense 3' end; listed as RNA; modified_base 1..2: mod_base = OTHER; note = 2'-O-methylcytidine; modified_base 3: mod_base = OTHER; modified_base 4..5: mod_base = OTHER; note = 2'-O-methyluridine; modified_base 6: mod_base = OTHER; note = 2'-O-me; modified_base 1: mod_base = OTHER; note = 2'-O-methyladenosine; modified_base 2: mod_base = OTHER; note = 2'-O-met)” displayed an EC50 in data set [1] of 1.77 nM.

On to “Z33: siRNA conjugate: sense SEQ ID NO:47, ligand D18 at 3' end of sense strand, antisense SEQ ID NO:72 (sense GCCCCTTATTGTTANACGA; antisense TCGTATNACAATAAGGGGCTGT; ligand D18 at sense 3' end; listed as RNA; modified_base 1: mod_base = OTHER; note = 2'-O-methylguanosine; modified_base 2: mod_base = OTHER; note = 2'-O-methylcytidine; modified_base 3..5: mod_base = OTHER; modified_base 6: mod_base = OTHER; note = 2'-O-met; note = E-type vinylphosphonate-modified 2'-O-methyluridine; note = 2'-fluorocytidine; modified_base 3: mod_base = OTHER; modified_base 4: mo)”, for which the “% Downregulation of LPA mRNA” value in the data set on LPA mRNA amounted to 79.2%.

On to “Z11: siRNA conjugate: sense SEQ ID NO:27, ligand D08 at 3' end of sense strand, antisense SEQ ID NO:59 (sense CCCTTATTGTTATACG; antisense ATCCCTCGTANAACAATAAGGGGCTGCC; 2'-OMe/2'-F modified, ligand at sense 3' end, full pattern not given here)”, for which the EC50 in data set [1] was 0.56 nM.

For the substance “Z41: siRNA conjugate: sense SEQ ID NO:49, ligand D01 at 3' end of sense strand, antisense SEQ ID NO:79 (sense CAGCCCCTTATTGTTATACGA; antisense NCGTATNACAATAAGGGGCNGTT; ligand D01 at sense 3' end; listed as RNA; modified_base 1: mod_base = OTHER; note = 2'-O-methylcytidine; modified_base 2: mod_base = OTHER; note = 2'-O-methyladenosine; modified_base 3: mod_base = OTHER; note = 2'-O-methylguanosine; modified_base 4..7: mod_base = OTHER; note = 2'-O-me; note = n is B29; note = 2'-deoxycytidine; modified_base 4: mod_base = OTHER; note = 2'-O-methyluridine; m)”, it took 0.09 nM to reach a half-maximal effect in data set [1] (EC50). The results for the IL-6 in the data set on hPBMCs (5 µg/mL), in the data set on hPBMCs (15 µg/mL) and in the data set on hPBMCs (45 µg/mL) were 1362.7 pg/mL, 2424.8 pg/mL and 1537.6 pg/mL, respectively. Also, the TNF alpha in the data set on hPBMCs (5 µg/mL) was determined as 37.3 pg/mL; with hPBMCs (15 µg/mL), 94.0 pg/mL; with hPBMCs (45 µg/mL) it was 44.7 pg/mL.

Substance “Z32: siRNA conjugate: sense SEQ ID NO:47, ligand D18 at 3' end of sense strand, antisense SEQ ID NO:71 (sense GCCCCTTATTGTTANACGA; antisense TCGTATNACAATAAGGGGCTGT; ligand D18 at sense 3' end; listed as RNA; modified_base 1: mod_base = OTHER; note = 2'-O-methylguanosine; modified_base 2: mod_base = OTHER; note = 2'-O-methylcytidine; modified_base 3..5: mod_base = OTHER; modified_base 6: mod_base = OTHER; note = 2'-O-met; note = E-type vinylphosphonate-modified 2'-O-methyluridine; note = 2'-fluorocytidine; modified_base 3: mod_base = OTHER; modified_base 4: mo)” registered a 50% effective concentration (EC50) in data set [1] of 0.21 nM. In addition, the “% Downregulation of LPA mRNA” value in the data set with LPA mRNA stood at 86.4%.

By EC50 is commonly meant the concentration needed to bring the measured effect to its halfway point. The low end stands for an effect from little substance, the high end for a need for much substance.
